Experimental data reported in PMC11079029, “Intramolecular autoinhibition regulates the selectivity of PRPF40A tandem WW domains for proline-rich motifs” (Nature Communications, 2024).
Where two headings read alike, the source gives them in different places.

Experiments:
[1] = biological target: T1, PRPF40A WW12 (tandem WW domains, residues 141–236) (Homo sapiens, UniProt O75400); assay: ITC of PRPF40A WW12 with GB1-tagged proline-rich peptides and constructs; assay type: binding
T1 construct: WW12 141–236, WW12long 141–248, and N-ext-WW12 56–236; 6xHis-TEV site (N, cleaved yes); made in house; host or cells: Escherichia coli BL21(DE3)
From the text: (§1) PRPF40A isoform 1 sequences (N-ter 1–310, WW12short 141–223, WW12 141–236, WW12long 141–248, and N-ext-WW12 56–236) were amplified from a purchased DNA fragment (IDT) and cloned using NcoI and KpnI restriction sites into a pETM11 vector encoding 6xHis and TEV cleavage site as a N-terminal tag. SF1 (Pro A 410–468, Pro B 468–539, Pro C 539–594, Pro D 594–639, Pro BC 468–594, Pro CD 539–639, Pro BCD 468–639 and Pro ABCD 410–639) and SF3A1 (Middle Pro 364–413 and C-ter Pro 552–683) constructs were prepared in a similar manner using a pET24 vector with a 6xHis, GB1 and TEV cleavage site as N-terminal fusion cassette. 16-mer SF1 constructs (Table 1) and polyproline peptides (P6, P8, P10, P13, P16, P19, P22, P25, and P29) were cloned in the same pET24 vector with GB1 tag by direct ligation of purchased oligonucleotides (Eurofins). All peptide sequences contained N and C-terminal common residues to avoid boundary effects on binding: TEVsite-GAMSGS-peptide-SGSN. Mutants of PRPF40A WW12 and N-ext-WW12 constructs were prepared by site-directed mutagenesis. The truncated version of PRPF40A WW12 (141-217) was a gift from Dr. María Macías (IRB, Spain). All used oligonucleotides were purchased from Eurofins Genomics and are shown in Supplementary Table 6.
(§2) Resuspended cell pellets in 20 mM Tris pH 8.0, 500 mM NaCl, 10 mM imidazole, 0.5 mM TCEP, and protease inhibitors mix (SERVA) were lysed by cell disruption in a French press. Clear lysates, after centrifugation (at 18,000 g) and filtering, were loaded into Ni-NTA resin. The resin was then washed with 20 mM imidazole containing buffer, and the desired protein was eluted with 500 mM imidazole. PRPF40A constructs were then subjected to TEV protease treatment (homemade at a final concentration of ≈50 μg/ml), dialyzed overnight at 4 °C against an imidazole-free buffer, and then loaded again to Ni-NTA resin; desired digested proteins were obtained in the flow-through and wash fractions while uncleaved protein, TEV protease, and impurities remained bound to the resin. Cleaved PRPF40A proteins and GB1-tagged SF1, SF3A1, and polyproline constructs were further purified by size-exclusion chromatography on a HiLoad 16/60 Superdex 75 column (GE Healthcare) equilibrated with 20 mM sodium phosphate, pH 6.5, 100 mM NaCl and 1 mM DTT buffer. For the purification of PRPF40A WW12 in complex with SF1 peptide, cell pellets of recombinant expression for both proteins were mixed and processed together following the Ni-NTA—TEV digestion—reverse Ni-NTA—SEC-75 protocol; where the complex remained bound in a 1:1 stoichiometry throughout the whole purification (corroborated by NMR). Molecular weight of each sample was confirmed by mass spectrometry, purity was checked by PAGE-SDS, and protein concentrations were determined from the aromatic contribution to the UV absorbance spectra at 280 nm.
(§3) Experiments were conducted on a MicroCAl PEAQ-ITC (Malvern Instruments, UK) at 25 °C in 20 mM sodium phosphate pH 6.5 and 100 mM NaCl. PRPF40A was titrated into N-terminal GB1 tagged SF1 or polyproline constructs and vice versa with similar results. Protein concentrations in the cell were around 20–40 μM, while in the syringe ranged between 200 and 500 μM. Experiments were performed at least in duplicate with injections of 1.5 μL (0.4 μL for first point) separated by 150 s delays to recover thermal power baseline and continuous stirring in the cell (750 rpm) for correct mixing. The reference cell was filled with water in all experiments. Data were processed by removing the blank experiment (using digested GB1 fusion protein) and adjusted to one-site binding model with Malvern PEAQ-ITC Analysis software (Malvern Instruments, UK).

[2] = biological target: T2, PRPF40A N-ext-WW12 (residues 56–236) (Homo sapiens, UniProt O75400); assay: ITC of N-terminally extended WW12 with SF1 peptides; assay type: binding; details: for Kd: ITC
T2 construct: WW12long 141–248, and N-ext-WW12 56–236; 6xHis-TEV site (N, cleaved yes); made in house; host or cells: Escherichia coli BL21(DE3)
T2 sequence (O75400 56-236): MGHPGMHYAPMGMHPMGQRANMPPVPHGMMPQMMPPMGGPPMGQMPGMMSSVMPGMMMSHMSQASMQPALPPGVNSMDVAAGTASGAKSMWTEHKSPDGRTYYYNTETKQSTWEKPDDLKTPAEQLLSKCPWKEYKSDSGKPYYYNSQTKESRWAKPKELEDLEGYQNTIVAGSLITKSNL
From the text: as §1, §2, §3

[3] = tested on: PRPF40A N-ext-WW12; assay: NMR titration (1H-15N and 1H-13C HSQC) of N-ext-WW12 with SF1 peptides; assay type: binding, human; details: NMR titration of N-ext-WW12, ratios 1:1 up to 1:4
Procedure: NMR samples were prepared at concentrations ranging 100–1000 μM in buffer containing 20 mM sodium phosphate pH 6.5, 100 mM NaCl, 1 mM DTT, and 10% or 100% D2O, and measured at 25 °C (except stated otherwise) in 900-, 800-, 600- and 500-MHz Bruker Avance III NMR spectrometers equipped with cryogenic triple resonance gradient probes. Topspin 4.1.0 (Bruker) software was used for NMR data acquisition. Spectra were processed with NMRpipe 8.9[76] and analyzed using ccpnNMR Analysis 2.5 software.
^15N-labeled PRPF40A proteins (WW1, WW2, WW12, and N-extWW12) at around 100 μM concentration were titrated with increasing concentration ratios of polyproline or SF1 peptides (GB1 tagged) until reaching saturation, when possible; ^1H-^15N HSQC experiments and in some cases ^1H-^13C HSQC experiments (using double-labeled PRPF40A proteins) were acquired at each titration point. The chemical shift perturbation (CSP) was weighted using the Eqs. (1) and (2)[89].1 CSP(HN)=0.5⋅ΔδH2+0.14⋅ΔδN2 2 CSP(HC)=0.5⋅ΔδH2+0.3⋅ΔδC2

**Q.** What does the source list for PPLPPGAPPPPPPPPP [SF1WWbs]?
**A.** N (sites) ([1]; ITC as E1, peptide in the cell, WW tandem in the syringe, N >1 = more than one WW tandem per peptide): 1.00 ± 0.03 sites; DH ([1]; ITC binding enthalpy, as E1): -19.6 ± 0.406 kcal/mol; Kd (µM) ([1]; ITC, 25 °C, 20 mM sodium phosphate pH 6.5, 100 mM NaCl, GB1-tagged polyproline or SF1 16-mer peptide in the cell, WW tandem in the syringe, one-site model, apparent Kd, average of at least duplicates): low micromolar range; Kd ([1]; ITC, SF1 peptides, individual value 1 (replicate 1), read-out: Kd Values with WW12, individual value): 1.29 µM; Kd ([1]; ITC, SF1 peptides, individual value 2 (replicate 2), read-out: Kd Values with WW12, individual value): 1.24 µM; Kd ([1]; ITC, SF1 peptides, individual value 3 (replicate 3), read-out: Kd Values with WW12, individual value): 1.62 µM; Kd ([1]; ITC, SF1 peptides, individual value 5 (replicate 5), read-out: Kd Values with WW12, individual value): 1.29 µM; Kd ([1]; ITC, mean over the peptides of the classification group, read-out: Kd Values with WW12, averaged group): 1.4 µM; N (sites) ([2]; ITC as E7): 0.88 ± 0.03 sites; DH ([2]; ITC binding enthalpy, as E7): -15.8 ± 0.884 kcal/mol; Kd ([2]; 25 °C, 20 mM sodium phosphate pH 6.5, 100 mM NaCl, GB1-tagged SF1 16-mer, N-terminally extended WW12, at least duplicates, listed as 575 PPLPPGAPPPPPPPPP 590, read-out: Kd): 8.71 ± 0.88 µM; Kd ([2]; 25 °C, 20 mM sodium phosphate pH 6.5, 100 mM NaCl, GB1-tagged SF1 16-mer, N-terminally extended WW12, at least duplicates, read-out: Kd): < 10 µM; Kd ([2]; SF1 peptides, individual value 1 (replicate 1), read-out: Kd Values with Nter Ext WW12, individual value): 9.19 µM; Kd ([2]; SF1 peptides, individual value 2 (replicate 2), read-out: Kd Values with Nter Ext WW12, individual value): 8.22 µM; displacement of the intramolecular N-terminal motifs (methyl signals Val 80, Val 129) [3]: able to displace the intramolecular interaction
